Data as given in ChEMBL document CHEMBL1157675, “Anti-inflammatory diterpenes from the seeds of Vitex negundo” (Bioorg Med Chem, 2010).
The source made the active and inactive calls. No cut-off for these calls is given here.

Each molecule was assayed on RAW264.7 (assay: Antiinflammatory activity in mouse RAW264.7 cells assessed as inhibition of LPS-induced NO production after 24 hrs by Griess reagent method). Settings: RAW264.7, 24 h.
Type: functional, cell-based

| SMILES | IC50 |
| --- | --- |
| COC(=O)/C=C1\CC[C@@]2(O1)[C@H](C)CC[C@H]1C(C)(C)[C@@H](OC(C)=O)CC[C@@]12C (relative stereo) [NEGUNDOIN A] | 9830 nM |
| CC(=O)O[C@H]1CC[C@@]2(C)[C@@H](CC[C@@H](C)[C@]23CC/C(=C\C(=O)O)O3)C1(C)C (relative stereo) [NEGUNDOIN B] | 23400 nM |
| CO[C@H]1OC(=O)C[C@@]12CC[C@@]1(O2)[C@H](C)CC[C@H]2C(C)(C)[C@@H](OC(C)=O)CC[C@@]21C (relative stereo) [NEGUNDOIN D] | 4390 nM |
| COc1ccc2c(c1)c(CC(=O)O)c(C)n2C(=O)c1ccc(Cl)cc1 [INDOMETHACIN] | 45500 nM |

Molecules with a lower IC50, results first:

| IC50 | SMILES |
| --- | --- |
| 1160 nM | CC(C)c1ccc(O)c(CC[C@@H]2[C@@H](C)CC[C@H](O)C2(C)C)c1 (relative stereo) [NEGUNDOIN F] |
| 700 nM | C=C[C@@]1(C)CCC2C(=C[C@@H](O)[C@H]3C(C)(C)CCC[C@]23CO)C1=O (relative stereo) [NEGUNDOIN G] |
| 230 nM | CC(=O)O[C@H]1CC[C@@]2(C)[C@@H](CC[C@@H](C)[C@]23CC[C@@]2(CCO[C@H]2O)O3)C1(C)C (relative stereo) [NEGUNDOIN E] |
| 120 nM | CC(=O)O[C@H]1CC[C@@]2(C)[C@@H](CC[C@@H](C)[C@]23CC/C(=C\C=O)O3)C1(C)C (relative stereo) [NEGUNDOIN C] |

What follows are molecules tested on RAW264.7 (assay: Cytotoxicity against mouse RAW264.7 cells up to 50 uM after 24 hrs by MTT assay). Settings: raw264.7, 24 h.
Type: cell-based

| SMILES | Activity |
| --- | --- |
| COC(=O)/C=C1\CC[C@@]2(O1)[C@H](C)CC[C@H]1C(C)(C)[C@@H](OC(C)=O)CC[C@@]12C (relative stereo) [NEGUNDOIN A] | Non-toxic |
| CC(=O)O[C@H]1CC[C@@]2(C)[C@@H](CC[C@@H](C)[C@]23CC/C(=C\C(=O)O)O3)C1(C)C (relative stereo) [NEGUNDOIN B] | Non-toxic |
| C=C[C@@]1(C)CCC2C(=C[C@@H](O)[C@H]3C(C)(C)CCC[C@]23CO)C1=O (relative stereo) [NEGUNDOIN G] | Non-toxic |
| CC(=O)O[C@H]1CC[C@@]2(C)[C@@H](CC[C@@H](C)[C@]23CC[C@@]2(CCO[C@H]2O)O3)C1(C)C (relative stereo) [NEGUNDOIN E] | Non-toxic |
| CC(C)c1ccc(O)c(CC[C@@H]2[C@@H](C)CC[C@H](O)C2(C)C)c1 (relative stereo) [NEGUNDOIN F] | Non-toxic |
| CC(=O)O[C@H]1CC[C@@]2(C)[C@@H](CC[C@@H](C)[C@]23CC/C(=C\C=O)O3)C1(C)C (relative stereo) [NEGUNDOIN C] | Non-toxic |
| CO[C@H]1OC(=O)C[C@@]12CC[C@@]1(O2)[C@H](C)CC[C@H]2C(C)(C)[C@@H](OC(C)=O)CC[C@@]21C (relative stereo) [NEGUNDOIN D] | Non-toxic |

What follows are molecules tested on RAW264.7 (assay: Antiinflammatory activity in LPS-stimulated mouse RAW264.7 cells assessed as reduction of COX2 protein expression at 5 uM after 24 hrs by Western blot analysis relative to control). Settings: not given.
Type: functional

| SMILES | inhibition |
| --- | --- |
| COC(=O)/C=C1\CC[C@@]2(O1)[C@H](C)CC[C@H]1C(C)(C)[C@@H](OC(C)=O)CC[C@@]12C (relative stereo) [NEGUNDOIN A] | inactive |
| CO[C@H]1OC(=O)C[C@@]12CC[C@@]1(O2)[C@H](C)CC[C@H]2C(C)(C)[C@@H](OC(C)=O)CC[C@@]21C (relative stereo) [NEGUNDOIN D] | inactive |

Same assay, conditions: RAW264.7, 24 h, values are per cent of control

| SMILES | response, % of control at 5 µM |
| --- | --- |
| CC(=O)O[C@H]1CC[C@@]2(C)[C@@H](CC[C@@H](C)[C@]23CC[C@@]2(CCO[C@H]2O)O3)C1(C)C (relative stereo) [NEGUNDOIN E] | 26.4% |
| CC(C)c1ccc(O)c(CC[C@@H]2[C@@H](C)CC[C@H](O)C2(C)C)c1 (relative stereo) [NEGUNDOIN F] | 59.7% |
| CC(=O)O[C@H]1CC[C@@]2(C)[C@@H](CC[C@@H](C)[C@]23CC/C(=C\C=O)O3)C1(C)C (relative stereo) [NEGUNDOIN C] | 2.06% |

These molecules were tested on RAW264.7 (assay: Antiinflammatory activity in LPS-stimulated mouse RAW264.7 cells assessed as reduction of iNOS protein expression at 5 uM after 24 hrs by Western blot analysis relative to control). Settings: RAW264.7, 24 h, values are per cent of control.
Type: functional

| SMILES | response, % of control at 5 µM |
| --- | --- |
| COC(=O)/C=C1\CC[C@@]2(O1)[C@H](C)CC[C@H]1C(C)(C)[C@@H](OC(C)=O)CC[C@@]12C (relative stereo) [NEGUNDOIN A] | 68.2% |
| CC(=O)O[C@H]1CC[C@@]2(C)[C@@H](CC[C@@H](C)[C@]23CC[C@@]2(CCO[C@H]2O)O3)C1(C)C (relative stereo) [NEGUNDOIN E] | 41% |
| CC(C)c1ccc(O)c(CC[C@@H]2[C@@H](C)CC[C@H](O)C2(C)C)c1 (relative stereo) [NEGUNDOIN F] | 58.2% |
| CC(=O)O[C@H]1CC[C@@]2(C)[C@@H](CC[C@@H](C)[C@]23CC/C(=C\C=O)O3)C1(C)C (relative stereo) [NEGUNDOIN C] | 0.4% |
| CO[C@H]1OC(=O)C[C@@]12CC[C@@]1(O2)[C@H](C)CC[C@H]2C(C)(C)[C@@H](OC(C)=O)CC[C@@]21C (relative stereo) [NEGUNDOIN D] | 62% |

These molecules were tested on RAW264.7 (assay: Antiinflammatory activity in LPS-stimulated mouse RAW264.7 cells assessed as reduction of COX2 protein expression at 50 uM after 24 hrs by Western blot analysis relative to control). Settings: RAW264.7, 24 h.
Type: functional

| SMILES | inhibition at 50 µM |
| --- | --- |
| COc1ccc2c(c1)c(CC(=O)O)c(C)n2C(=O)c1ccc(Cl)cc1 [INDOMETHACIN] | 59.9% |

These molecules were tested on RAW264.7 (assay: Antiinflammatory activity in LPS-stimulated mouse RAW264.7 cells assessed as reduction of iNOS protein expression at 50 uM after 24 hrs by Western blot analysis relative to control). Settings: RAW264.7, 24 h.
Type: functional

| SMILES | inhibition at 50 µM |
| --- | --- |
| COc1ccc2c(c1)c(CC(=O)O)c(C)n2C(=O)c1ccc(Cl)cc1 [INDOMETHACIN] | 86.5% |
